According to patent US8247224B2, “Recombinant construct for detection of halogenated aromatic hydrocarbons” (National Health Research Institutes, priority 2010, dated 2012):

Target: T1, AhR (Rattus norvegicus, UniProt P41738)
T1 construct: introducing a recombinant construct as described above into a host cell that expresses AhR; endogenous in cells; host or cells: H-4-II-E cells infected with the AdEasy-4XDRE-TATA-Luc reporter adenovirus
T1 sequence (P41738 10-853): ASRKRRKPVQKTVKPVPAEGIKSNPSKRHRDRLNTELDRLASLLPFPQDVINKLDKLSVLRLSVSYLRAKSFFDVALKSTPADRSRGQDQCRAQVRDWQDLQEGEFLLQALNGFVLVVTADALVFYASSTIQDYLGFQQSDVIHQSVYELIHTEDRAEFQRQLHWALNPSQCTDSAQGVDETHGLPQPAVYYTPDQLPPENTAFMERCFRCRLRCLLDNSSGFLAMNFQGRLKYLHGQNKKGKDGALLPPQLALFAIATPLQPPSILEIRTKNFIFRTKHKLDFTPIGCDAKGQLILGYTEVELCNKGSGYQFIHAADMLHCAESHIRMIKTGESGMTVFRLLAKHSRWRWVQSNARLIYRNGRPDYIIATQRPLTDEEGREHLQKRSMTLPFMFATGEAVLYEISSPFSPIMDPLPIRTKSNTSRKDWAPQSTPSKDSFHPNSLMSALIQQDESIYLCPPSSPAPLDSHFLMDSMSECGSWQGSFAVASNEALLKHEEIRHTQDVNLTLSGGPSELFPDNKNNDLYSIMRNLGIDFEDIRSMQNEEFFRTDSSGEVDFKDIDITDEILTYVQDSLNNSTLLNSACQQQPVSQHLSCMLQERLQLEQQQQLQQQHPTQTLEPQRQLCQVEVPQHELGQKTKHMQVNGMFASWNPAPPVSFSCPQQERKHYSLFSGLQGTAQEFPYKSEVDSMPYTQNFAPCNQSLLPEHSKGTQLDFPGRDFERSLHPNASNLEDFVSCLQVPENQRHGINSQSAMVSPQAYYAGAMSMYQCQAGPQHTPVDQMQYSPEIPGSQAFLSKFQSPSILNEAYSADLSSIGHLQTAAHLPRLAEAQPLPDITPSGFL
Experiment: Luciferase activity of H-4-II-E cells infected with AdEasy-4XDRE-TATA-Luc and treated with TCDD
Type: cell-based
Details: AdEasy-4XDRE-TATA-Luc at MOI of one particles/cell for 16 hours, TCDD for 24 hours, luciferase activity (RLU), FIG. 6
Source text: As known in the art, the action of the HAH compounds is mediated through a cytosolic transcription factor, called the aryl hydrocarbon receptor (AhR). After binding of the ligand (HAH compounds), the resulted AhR complex binds to specific DNA sequences i.e. DREs, and then results in transcriptional activation of the adjacent responsive genes. The consensus sequence of the DREs is 5′-TNGCGTG-3′ where N means any nucleotide of A, T, G and C.
H-4-II-E cells (Bioresources Collection and Research Center (BCRC), Food Industry Research and Development Institute (FIRDI), Hsinchu, Taiwan) were seeded on 96-well plates at a density of 2×10^4 cells/well in culture medium (80% Minimum essential medium Eagle with 0.1 mM non-essential amino acids, Earle's BSS, 10% fetal bovine serum and 10% calf serum) and cultured overnight in a humidified atmosphere containing 5% CO2 at 37° C. Subsequently, the cells were incubated with AdEasy-4XDRE-TATA-Luc as obtained in Example 1 at a multiplicity of infection (MOI) of one particles/cell for 16 hours. […] Luciferase activity was measured by Luciferase Assay System (Promega, Madison, Wis., USA) according to the standard protocol as provided using the programmed microplate luminometer MicroLumatPlus LB96V (EG&G Berthold, Germany). The luciferase activity was expressed as relative light units (RLU).

Structure (SMILES): Clc1cc2c(cc1Cl)Oc1cc(Cl)c(Cl)cc1O2 [TCDD, 2,3,7,8-tetrachlorodibenzo-p-dioxin]
- concentrations between which the luciferase response shows a steep slope: 10^−12 to 10^−10 M
- detection limit: around 10^−12 M
